From patent publication US9675075B2, “Pest control composition” (MEIJI SEIKA PHARMA CO., LTD., priority 2007, dated 2017)

Experiments:
Assay type in all cases: in vivo
[1] = system: Aphis gossypii; experiment: Test Example 2: pesticidal effect against Aphis gossypii (Part 2), same test as Test Example 1 with other insecticides, death rate and Colby theoretical value; conditions: other insecticide 0.078 ppm alone (compound 261 0 ppm); for Theoretical value calculated by Colby's formula: Table 21; for Pesticidal effect against Aphis gossypii, death rate: cucumber leaf disk, 3 days
Description: (§1) A leaf disk having a diameter of 2.0 cmφ was cut out from a cucumber grown in a pot and was placed in a 5.0 cm-Schale. Test admixture solutions, prepared by diluting the composition of the present invention with a 50% aqueous acetone solution (0.05% Tween 20 added) to predetermined concentrations specified in Table 18, test single active ingredient solutions in which only compound 261 had been dissolved without mixing other insecticides, or test single active ingredient solutions in which only other insecticides had been dissolved without mixing any pyripyropene derivative were spread over the cucumber leaf disk. The leaf disk was then air dried. Ten larvae at the first instar born of Aphis gossypii were released in the Schale. Thereafter, the Schale was lidded and was allowed to stand in a humidistat chamber (light period 16 hr-dark period 8 hr) (25° C.). […] Death rate (%)={number of dead larvae/(number of survived larvae+number of dead larvae)}×100
(§2) Colby's formula: Theoretical value (%)=100−(A×B)/100
(§3) When the pesticidal effect (Table 18) of the composition of the present invention in, an admixture form against Aphis gossypii exceeded the theoretical value calculated by the Colby's formula shown in Table 19, the admixture was determined to have a synergistic effect.
The same test as in Test Example 1 was performed, except that the other insecticides were changed to those specified in Table 20.

[2] = system: Aphis gossypii; experiment: Test Example 1: pesticidal effect against Aphis gossypii (Part 1), cucumber leaf disk, death rate of first-instar larvae and Colby theoretical value; conditions: other insecticide 0.078 ppm alone (compound 261 0 ppm); for Theoretical value calculated by Colby's formula: Table 19; for Death rate of Aphis gossypii by single active ingredient or admixture: cucumber leaf disk, first-instar larvae, 3 days
Description: as §1, §2
wherein A: 100—(death rate when treatment was performed only with compound 261); and • B: 100—(death rate when treatment was performed only with each of flonicamid, acetamiprid, fipronil, imidacloprid)
as §3

[3] = system: Plutella xylostella; experiment: Test Example 3: pesticidal effect against Plutella xylostella, cabbage leaf disk, death rate of second-instar larvae and Colby theoretical value; conditions: other insecticide 0.156 ppm alone (compound 261 0 ppm)
Description: A leaf disk having a diameter of 5.0 cmφ was cut out from a cabbage grown in a pot and was placed in a plastic cup. Test admixture solutions, prepared by diluting the composition of the present invention with a 50% aqueous acetone solution (0.05% Tween 20 added) to predetermined concentrations specified in Table 22, test single active ingredient solutions in which only compound 261 had been dissolved without mixing other insecticides, or test single active ingredient solutions in which only other insecticides had been dissolved without mixing any pyripyropene derivative were spread over the cabbage leaf disk. The leaf disk was then air dried. Five larvae at the second instar born of Plutella xylostella were released in the cup. Thereafter, the cup was lidded and was allowed to stand in a humidistat chamber (light period 16 hr-dark period 8 hr) (25° C.). […] Death rate (%)={number of dead larvae/(number of survived larvae+number of dead larvae)}×100
Colby's formula: Theoretical value (%)=100−(A×B)/100 […]
When the pesticidal effect (Table 22) of the composition of the present invention in an admixture form against Plutella xylostella exceeded the theoretical value calculated by the Colby's formula shown in Table 23, the admixture was determined to have a synergistic effect.

Structure (SMILES)	Theoretical value calculated by Colby's formula [1] [%]	Pesticidal effect against Aphis gossypii, death rate [1] [%]	Theoretical value calculated by Colby's formula [2] [%]	Death rate of Aphis gossypii by single active ingredient or admixture [2] [%]	also measured
CN1COCN(Cc2cnc(Cl)s2)/C1=N\[N+](=O)[O-] [thiamethoxam]	65	65			
CN/C(=N\[N+](=O)[O-])NCc1cnc(Cl)s1 [clothianidin]	79	79			
C/C(=N\C#N)N(C)Cc1ccc(Cl)nc1 [acetamiprid]			58	58	
CN/C(=N/CC1CCOC1)N[N+](=O)[O-] (stereo not shown) [dinotefuran]	40	40			
O=[N+]([O-])NC1=NCCN1Cc1ccc(Cl)nc1 [imidacloprid]			20	20	
CCOCn1c(-c2ccc(Cl)cc2)c(C#N)c(Br)c1C(F)(F)F [chlorfenapyr]					Theoretical value calculated by Colby's formula ([3]; Table 23): 0%; Pesticidal effect against Plutella xylostella, deathrate ([3]; cabbage leaf disk, second-instar larvae, 3 days): 0%
N#CCNC(=O)c1cnccc1C(F)(F)F [flonicamid]			10	10	
N#Cc1nn(-c2c(Cl)cc(C(F)(F)F)cc2Cl)c(N)c1[S+]([O-])C(F)(F)F (stereo not shown) [fipronil]			0	0	
